Drawing on US20030220517A1, “Method for producing ketocarboxylic acid derivatives” (priority 2000, published 2003), this text covers chromatographic logP and melting point for eight compounds.

SMILES strings stand for the structures.

A short description of data set [1]: log P determination by HPLC on reversed-phase column (EEC Directive 79/831 Annex V.A8). The class given is physicochemical. The note with it: reversed-phase C18 HPLC column, reversed-phase column (C 18), 43° C., acidic range pH 2.3, 0.1% aqueous phosphoric acid/acetonitrile gradient. The procedure:
The log P values given in the use examples above are determined in accordance with EEC Directive 79/831 Annex V.A8 by HPLC (High Performance Liquid Chromatography) on a reversed-phase column (C 18). Temperature: 43° C. The determination is carried out in the acidic range at pH 2.3 using the mobile phases 0.1% aqueous phosphoric acid and acetonitrile; linear gradient from 10% acetonitrile to 90% acetonitrile. Calibration is carried out using unbranched alkan-2-ones (with 3 to 16 carbon atoms) with known logP values (determination of the logP values by the retention times using linear interpolation between two successive alkanones).

One may read the chromatographic logP as lipophilicity estimated from chromatographic retention. Regarding `O=C1CCC(c2ccc(-c3ccc(OC(F)(F)F)cc3)cc2)N1` (centres unmarked) [Example X-1, 5-[4′-(trifluoromethoxy)-1,1′-biphenyl-4-yl]-2-pyrrolidinone], the chromatographic logP in data set [1] came to 2.95. In data set [1], `O=C1CCC(c2ccc(-c3ccc(OC(F)(F)F)cc3)cc2)N1C(CCl)c1ccccc1` (centres unmarked) [VIII-1, 1-[2-chloro-1-phenylethyl]-5-[4′-(trifluoromethoxy)-1,1′-biphenyl-4-yl]-2-pyrrolidinone] displayed a chromatographic logP of 4.78. In data set [1], `C=C(c1ccccc1)N1C(=O)CCC1c1ccc(-c2ccc(OC(F)(F)F)cc2)cc1` (centres unmarked) [IX-1, 1-(1-phenylvinyl)-5-[4′-(trifluoromethoxy)-1,1′-biphenyl-4-yl]-2-pyrrolidinone] registered a chromatographic logP of 4.35. In data set [1], `CC(C)(C)OC(=O)NC(CCC(=O)c1c(F)cccc1F)c1ccc(-c2ccc(OC(F)(F)F)cc2)cc1` (centres unmarked) [XIII-1, tert-butyl 4-(2,6-difluorophenyl)-4-oxo-1-[4′-(trifluoromethoxy)-1,1′-biphenyl-4-yl]butylcarbamate] returned a chromatographic logP of 5.18. As to `O=C1CCC(c2ccc(-c3ccc(OC(F)(F)F)cc3)cc2)N1C(CO)c1ccccc1` (centres unmarked) [VII-1, 1-[2-hydroxy-1-phenylethyl]-5-[4′-(trifluoromethoxy)-1,1′-biphenyl-4-yl]-2-pyrrolidinone], the chromatographic logP in data set [1] was 3.8.

As a reminder, the melting point is the temperature of the solid-liquid transition. Take `O=C(O)CCC(=O)c1ccc(-c2ccc3c(c2)OC(F)(F)C(F)(F)O3)cc1` [Example 5, 4-oxo-4-(3′,4′-tetrafluoroethylenedioxo-biphenyl-4-yl)butyric acid]: the melting point is 165 to 168 °C.

As for `CC(C)(C)OC(=O)N1C(=O)CCC1c1ccc(-c2ccc(OC(F)(F)F)cc2)cc1` (centres unmarked) [XI-1, tert-butyl 2-oxo-5-[4′-(trifluoromethoxy)-1,1′-biphenyl-4-yl]-1-pyrrolidinecarboxylate], the chromatographic logP in data set [1] came to 4.32. Regarding `Fc1cccc(F)c1C1=N[C@@H](c2ccc(-c3ccc(OC(F)(F)F)cc3)cc2)CC1` [Example V-1, (2R)-5-(2,6-difluorophenyl)-2-[4′-(trifluoromethoxy)-1,1′-biphenyl-4-yl]-3,4-dihydro-2H-pyrrole], the chromatographic logP in data set [1] was found to be 4.13. The chromatographic logP values of the last two compounds are within 0.2 log units of each other.
